Results on 11 compounds are retold here after patent US10207988B2, “Methods and compositions for treatment of cancer and autoimmune disease” (THE JACKSON LABORATORY, priority 2011, dated 2019).

Each structure is given as a SMILES string.

Data set [1] relates to normal C57BL/6J splenic B-cells (AID+/+) versus splenic B-cells from AID−/− mice. The data set can be described thus: screening of DIDS derivatives, MultiTox-Fluor Multiplex Cytotoxicity Assay. It counts as cell-based, mouse. The conditions noted are these: 10, 50 or 150 μM, 4 days of stimulation with anti-CD40 plus IL-4. How it is done:
To identify bioactive derivatives of DIDS, a library of 10^5 chemical variants of DIDS was generated by replacing the sulfonate or isothiocyanate group with other chemical entities, or by altering the double bond joining the two rings in the stilbene backbone. All compounds were resuspended in dimethyl sulfoxide (DMSO) at a stock concentration of […], and used by serial dilution to generate working concentrations of 10, 50, or 150 μM. These were individually pipetted into 96-well microtiter culture dishes in duplicate, generating two plates of 10 μM, two plates of 50 μM, and two plates of 150 μM compounds. In each set, one plate was seeded with 100,000 normal C57BL/6J splenic B-cells (AID+/+) isolated by magnetic bead based sorting to enrich for B220+ IgM+ B-cells; and one plate was seeded with 100,000 splenic B-cells from AID−/− mice identically isolated. Each culture was stimulated on day 0 by addition of 1 μg/ml anti-CD40 plus 25 ng/ml IL-4 to induce proliferation and class-switch recombination. After two days, each culture was re-stimulated by an additional 1 μg/ml anti-CD40 plus 25 ng/ml IL-4. After two additional days in culture, for a total of 4 days of stimulation, viable cell counts were determined in each well of each plate using the MultiTox-Fluor Multiplex Cytotoxicity Assay (Promega, Inc.). For viability measurements, 100 microliters of the 2× MultiTox-Fluor Multiplex Cytotoxicity Reagent was added to each well and mixed before incubating at 37° C. for 30 min. Plates were then transferred to a fluorescence-capable multiplate reader and analyzed using 400 nm excitation and detection of 505 nm emission to measure the fraction of remaining live cells. As controls, wells containing either vehicle alone (DMSO) or 150 μM DIDS were included on each plate. Viability scores for each compound were determined as the fraction of live cells in the normal B-cell plate divided by the fraction of live cells in the corresponding AID knockout plate. Compounds that produce normal/AID knockout ratios at or below the level of the DIDS ratio were considered candidate compounds for further validation and testing. […] The initial screen identified 10 derivatives, BB5-6, BB1-6, BB1-7, BB2-6, BB2-5, BB5-39, BB4B-2, BB5-4, BB5-47, and BB8-1 (FIG. 10).

For data set [2], the system named is primary AID-knockout mouse splenocytes. The data set can be described thus: viability of activated AID-null splenocytes treated with NS-123 (Trypan blue). Type of data set: cell-based. The procedure:
Primary mouse B-cells were isolated from spleens of adult AID−/− mice as described in Example 1. Cultures were established at a concentration of 1×10^6 cells per ml in RPMI-1640 medium with 10% FBS. Cultures were activated with anti-CD40 antibody plus IL-4, and treated with 4′-Bromo-3′ nitropropiophenone (NS-123) (purchased from Calbiochem; CAS No. 101860-83-7) at concentrations of 0.5, 5, 50, or 500 μM. Cells were re-activated by anti-CD40 plus IL-4 after two days in culture. Cell counts were determined after 1, 2, 3, and 4 days in culture by Trypan blue staining. At the concentration of 50 μM and 500 μM of NS-123 AID-null splenocytes were not viable. At the concentration of 5 μM of NS-123 the viability of the splenocytes is reduced when compared to untreated splenocytes (FIG. 12).
Primary AID-knockout mouse splenocytes were seeded in cultures at day 0 at a concentration of 1×10^6 cells/ml in RPMI-1640 medium supplemented with anti-CD40 plus IL-4 to activate B-cells. Individual cultures were supplemented with 0, 5, 10, 20, 30, 40, or 50 μM NS-123 and viable cells were counted after Trypan blue staining on days 1, 2, 3, and 4 (FIG. 13).

In data set [3] the test system is U251, HT-29 and A549 tumor cells. The conditions noted are these: cited from earlier work.

Turning to `CN(C)S(=O)(=O)Nc1ccc(/C=C/c2ccc(NS(=O)(=O)N(C)C)cc2)cc1` [BB1-7, (E)-N,N′-(ethene-1,2-diylbis(4,1-phenylene))bis(dimethylamino-sulfonamide)], the “viability score: fraction of live cells AID+/+ divided by fraction of live cells AID−/− (hit: ratio less than 1)” value in data set [1] is reported as “identified”.

With `CNC(=O)c1ccc(/C=C/c2ccc(C(=O)NC)cc2)cc1` [BB8-1, (E)-4,4′-(ethene-1,2-diyl)bis(N-methylbenzamide)], the “viability score: fraction of live cells AID+/+ divided by fraction of live cells AID−/− (hit: ratio less than 1)” value in data set [1] is given as “identified”.

On to `CCNC(=O)Nc1ccc(/C=C/c2ccc(NC(=O)COC)cc2S(=O)(=O)[O-])c(S(=O)(=O)[O-])c1.[Na+].[Na+]` [BB5-47, sodium (E)-5-(3-ethylureido)-2-(4-(2-methoxyacetamido)-2-sulfonatostyryl)benzenesulfonate], for which, in data set [1], the “viability score: fraction of live cells AID+/+ divided by fraction of live cells AID−/− (hit: ratio less than 1)” value is reported as “identified”.

As for `CC(C)S(=O)(=O)Nc1ccc(/C=C/c2ccc(N(C)C)cc2)cc1` [BB2-6, (E)-N-(4-(4-(dimethylamino)styryl)phenyl)propane-2-sulfonamide], the “viability score: fraction of live cells AID+/+ divided by fraction of live cells AID−/− (hit: ratio less than 1)” value in data set [1] is recorded as “identified”.

Regarding `CC(=O)Nc1ccc(/C=C/c2ccc(NS(=O)(=O)C3CC3)cc2S(=O)(=O)[O-])c(S(=O)(=O)[O-])c1.[Na+].[Na+]` [BB5-4, sodium (E)-5-acetamido-2-(4-(cyclopropanesulfonamido)-2-sulfonatostyryl)benzenesulfonate], the “viability score: fraction of live cells AID+/+ divided by fraction of live cells AID−/− (hit: ratio less than 1)” value in data set [1] is given as “identified”.

In the case of `CN(C)c1ccc(/C=C/c2ccc(NS(=O)(=O)C3CC3)cc2)cc1` [BB2-5, (E)-N-(4-(4-(dimethylamino)styryl)phenyl)cyclopropanesulfonamide], in data set [1], the “viability score: fraction of live cells AID+/+ divided by fraction of live cells AID−/− (hit: ratio less than 1)” value is “identified”.

With `CC(C)S(=O)(=O)Nc1ccc(/C=C/c2ccc(NC(=S)NC3CC3)cc2S(=O)(=O)[O-])c(S(=O)(=O)[O-])c1.[Na+].[Na+]` [BB5-39, sodium (E)-5-(3-cyclopropylthioureido)-2-(4-(1-methylethylsulfonamido)-2-sulfonatostyryl)benzenesulfonate], the “viability score: fraction of live cells AID+/+ divided by fraction of live cells AID−/− (hit: ratio less than 1)” value in data set [1] is given as “identified”.

On to `CCC(=O)c1ccc(Br)c([N+](=O)[O-])c1` [NS-123, 1-(4-bromo-3-nitrophenyl)propan-1-one], for which the “viability of AID-null splenocytes” value is reported as “reduced” in data set [2] (5 μM NS-123, compared to untreated splenocytes); “not viable” in data set [2] (50 μM NS-123, activated with anti-CD40 plus IL-4); “not viable” in data set [2] (500 μM NS-123, activated with anti-CD40 plus IL-4). For the same compound, the LD50 in data set [2] (AID-null splenocytes, activated with anti-CD40 plus IL-4) amounted to 14 µM. In addition, the “concentration enhancing tumor growth-inhibitory effects of ionizing radiation” value in data set [3] (U251, HT-29 and A549 tumor cells) is about 5 µM. In addition, the “effect on normal cells and organisms” value in data set [3] (normal human glial cells, Zebrafish embryos and nude mice) was “no apparent effect”.

Take `CC(=O)Nc1ccc(/C=C/c2ccc(NS(=O)(=O)N(C)C)cc2S(=O)(=O)[O-])c(S(=O)(=O)[O-])c1.[Na+].[Na+]` [BB5-6, sodium (E)-5-acetamido-2-(4-((N,N-dimethylsulfamoyl)amino)-2-sulfonatostyryl)benzenesulfonate]: the “viability score: fraction of live cells AID+/+ divided by fraction of live cells AID−/− (hit: ratio less than 1)” value in data set [1] is given as “identified”.

Take `CC(C)NC(=O)Nc1ccc(CCc2ccc(NC(=O)NC(C)C)cc2S(=O)(=O)[O-])c(S(=O)(=O)[O-])c1.[Na+].[Na+]` [BB4B-2, sodium 6,6′-(ethane-1,2-diyl)bis(3-(3-isopropylureido)benzenesulfonate)]: in data set [1], the “viability score: fraction of live cells AID+/+ divided by fraction of live cells AID−/− (hit: ratio less than 1)” value is listed as “identified”.

As to `CC(C)S(=O)(=O)Nc1ccc(/C=C/c2ccc(NS(=O)(=O)C(C)C)cc2)cc1` [BB1-6, (E)-N,N′-(ethene-1,2-diylbis(4,1-phenylene))bis(propane-2-sulfonamide)], the “viability score: fraction of live cells AID+/+ divided by fraction of live cells AID−/− (hit: ratio less than 1)” value in data set [1] is “identified”.
